Measured values: patent publication US10399940B2, “Substituted pyrrolidines and methods of use” (AbbVie S.à.r.l., priority 2016, dated 2019)
Like-named read-outs stand apart in the source and are kept apart here.

Target: T1, F508delCFTR (Homo sapiens, UniProt P13569, DEL508-508)
T1 construct: expressed in transfected cells; host or cells: CFBE41o- (human lung derived epithelial cell line), doxycycline-inducible expression
Assay: Cell Surface Expression-Horse Radish Peroxidase (CSE-HRP) assay
Format: cell-based
Conditions: CFBE41o-F508delCFTR-HRP cells; for Maximum % activity (with co-corrector): with co-corrector (2 μM); for Maximum % activity (with co-corrector) / Maximum % activity (without co-corrector): normalized to on-plate positive control, highest concentration 20 μM
Outline: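 CFBE41o- cells expressed F508delCFTR with HRP in the fourth exofacial loop, induced by 0.5 μg/mL doxycycline for 72 h at 37 °C. Compounds alone or with 2 μM co-corrector ran 18–24 h at 33 °C, 8-point 3-fold from 20 μM. Washed-cell luminol luminescence was normalized to DMSO and positive control, fitted sigmoidally for EC50 (three plates).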

[1] = test compound without co-corrector, 18-24 hours at 33° C., read-out: EC50 (without co-corrector)
[2] = with co-corrector (2 μM of 3-[(2R,4R)-4-({[1-(2,2-difluoro-1,3-benzodioxol-5-yl)cyclopropyl]carbonyl}amino)-7-methoxy-3,4-dihydro-2H-chromen-2-yl]benzoic acid), read-out: EC50 (with co-corrector)

T1 sequence (P13569 with tags, fused parts or gaps DEL508-508): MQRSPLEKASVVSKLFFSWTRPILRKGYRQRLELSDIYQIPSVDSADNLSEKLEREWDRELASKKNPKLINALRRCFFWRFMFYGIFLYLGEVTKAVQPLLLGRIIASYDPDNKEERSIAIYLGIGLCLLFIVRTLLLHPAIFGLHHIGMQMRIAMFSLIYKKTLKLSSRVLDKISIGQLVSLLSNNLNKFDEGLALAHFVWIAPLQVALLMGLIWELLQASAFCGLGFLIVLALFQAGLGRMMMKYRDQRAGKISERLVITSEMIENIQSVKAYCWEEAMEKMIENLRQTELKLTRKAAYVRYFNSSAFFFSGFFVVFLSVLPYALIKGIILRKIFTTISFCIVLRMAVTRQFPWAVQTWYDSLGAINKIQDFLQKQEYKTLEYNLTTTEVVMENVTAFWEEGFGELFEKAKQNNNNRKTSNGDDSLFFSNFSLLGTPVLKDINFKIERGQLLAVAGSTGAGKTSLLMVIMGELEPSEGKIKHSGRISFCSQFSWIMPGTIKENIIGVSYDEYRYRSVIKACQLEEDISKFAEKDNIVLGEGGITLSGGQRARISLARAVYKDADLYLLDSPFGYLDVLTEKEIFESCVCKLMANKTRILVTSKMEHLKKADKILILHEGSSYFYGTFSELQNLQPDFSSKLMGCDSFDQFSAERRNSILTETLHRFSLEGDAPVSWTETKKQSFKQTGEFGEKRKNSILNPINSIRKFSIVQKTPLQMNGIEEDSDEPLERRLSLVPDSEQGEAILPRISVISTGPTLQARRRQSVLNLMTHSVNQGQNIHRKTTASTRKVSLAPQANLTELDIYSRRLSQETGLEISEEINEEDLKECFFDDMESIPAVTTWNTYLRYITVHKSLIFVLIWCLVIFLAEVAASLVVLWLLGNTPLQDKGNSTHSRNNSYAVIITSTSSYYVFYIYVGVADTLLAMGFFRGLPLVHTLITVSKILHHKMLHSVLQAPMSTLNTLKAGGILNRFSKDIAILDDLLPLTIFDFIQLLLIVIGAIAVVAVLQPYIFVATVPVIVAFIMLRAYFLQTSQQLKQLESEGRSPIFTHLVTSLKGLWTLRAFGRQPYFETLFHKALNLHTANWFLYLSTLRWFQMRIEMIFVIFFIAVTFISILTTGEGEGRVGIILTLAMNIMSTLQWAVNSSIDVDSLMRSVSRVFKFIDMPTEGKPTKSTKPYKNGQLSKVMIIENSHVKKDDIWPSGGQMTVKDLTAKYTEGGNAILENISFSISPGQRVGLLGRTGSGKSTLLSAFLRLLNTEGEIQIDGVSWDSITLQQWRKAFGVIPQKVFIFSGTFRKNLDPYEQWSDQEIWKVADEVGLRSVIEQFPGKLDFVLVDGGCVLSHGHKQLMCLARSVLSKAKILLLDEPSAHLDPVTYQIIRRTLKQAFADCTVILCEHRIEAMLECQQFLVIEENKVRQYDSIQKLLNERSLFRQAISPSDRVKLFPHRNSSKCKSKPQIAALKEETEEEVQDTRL

Row | Structure (SMILES) | EC50 [1] [nM] | EC50 [2] [nM] | Maximum % activity (with co-corrector) | Maximum % activity (without co-corrector)
1 | COc1ccc(C(C)(C)C)cc1CO[C@H]1[C@H](C(C)(C)C)[C@@H](C(=O)O)N(C(=O)[C@@H]2CCCO2)[C@H]1c1ccccc1C1CC1 [Example 172, (2S,3R,4S,5S)-3-tert-butyl-4-[(5-tert-butyl-2-methoxyphenyl)methoxy]-5-(2-cyclopropylphenyl)-1-[(2S)-oxolane-2-carbonyl]pyrrolidine-2-carboxylic acid] | 1000 to 10000 | 1000 to 10000 | +++ (≥350) | +++ (≥200)
2 | COc1ncc(Br)cc1CO[C@H]1[C@H](C(C)(C)C)[C@@H](C(=O)O)N(C(=O)[C@@H]2CCCO2)[C@H]1c1ccccc1C1CC1 [Example 173, (2S,3R,4S,5S)-4-[(5-bromo-2-methoxypyridin-3-yl)methoxy]-3-tert-butyl-5-(2-cyclopropylphenyl)-1-[(2S)-oxolane-2-carbonyl]pyrrolidine-2-carboxylic acid] | 1000 to 10000 | 1000 to 10000 | +++ (≥350) | +++ (≥200)
3 | COc1cc(C(F)(F)F)ccc1CO[C@H]1[C@H](C(C)(C)C)[C@@H](C(=O)O)N(C(=O)[C@@H]2CCCCO2)[C@H]1c1ccccc1C [Example 175, (2S,3R,4S,5S)-3-tert-butyl-4-{[2-methoxy-4-(trifluoromethyl)phenyl]methoxy}-5-(2-methylphenyl)-1-[(2S)-oxane-2-carbonyl]pyrrolidine-2-carboxylic acid] | 1000 to 10000 | < 1000 | +++ (≥350) | +++ (≥200)
4 | COc1ncc(C2CCC2)cc1CO[C@H]1[C@H](C(C)(C)C)[C@@H](C(=O)O)N(C(=O)[C@@H]2CCCCO2)[C@H]1c1ccccc1C(C)C [Example 176, (2S,3R,4S,5S)-3-tert-butyl-4-[(5-cyclobutyl-2-methoxypyridin-3-yl)methoxy]-1-[(2S)-oxane-2-carbonyl]-5-[2-(propan-2-yl)phenyl]pyrrolidine-2-carboxylic acid] | 1000 to 10000 | < 1000 | +++ (≥350) | +++ (≥200)
5 | COc1ncc(C(F)(F)F)cc1CO[C@H]1[C@H](C(C)(C)C)[C@@H](C(=O)O)N(C(=O)[C@@H]2CCCCO2)[C@H]1c1ccccc1Br [Example 178, (2S,3R,4S,5S)-5-(2-bromophenyl)-3-tert-butyl-4-{[2-methoxy-5-(trifluoromethyl)pyridin-3-yl]methoxy}-1-[(2S)-oxane-2-carbonyl]pyrrolidine-2-carboxylic acid] | 1000 to 10000 | 1000 to 10000 | +++ (≥350) | ++ (≥100 and <200)
6 | COc1ncc(C(F)(F)F)cc1CO[C@H]1[C@H](C(C)(C)C)[C@@H](C(=O)O)N(C(=O)[C@@H]2CCCCO2)[C@H]1c1ccccc1-c1ccc(=O)n(C)c1 [Example 181, (2S,3R,4S,5S)-3-tert-butyl-4-{[2-methoxy-5-(trifluoromethyl)pyridin-3-yl]methoxy}-5-[2-(1-methyl-6-oxo-1,6-dihydropyridin-3-yl)phenyl]-1-[(2S)-oxane-2-carbonyl]pyrrolidine-2-carboxylic acid] | > 10000 | 1000 to 10000 | ++ (≥150 and <350) | + (<100)
7 | COc1ncc(C2CCC2)cc1CO[C@H]1[C@H](C(C)(C)C)[C@@H](C(=O)O)N(C(=O)C2CCCCC2)[C@H]1c1ccccc1C1CC1 [Example 182, (2S,3R,4S,5S)-3-tert-butyl-4-[(5-cyclobutyl-2-methoxypyridin-3-yl)methoxy]-1-(cyclohexanecarbonyl)-5-(2-cyclopropylphenyl)pyrrolidine-2-carboxylic acid] | 1000 to 10000 | < 1000 | +++ (≥350) | +++ (≥200)
8 | COc1ncc(C2CCC2)cc1CO[C@H]1[C@H](C(C)(C)C)[C@@H](C(=O)O)N(C(=O)C2CCCCC2)[C@H]1c1ccccc1Br [Example 183, (2S,3R,4S,5S)-5-(2-bromophenyl)-3-tert-butyl-4-[(5-cyclobutyl-2-methoxypyridin-3-yl)methoxy]-1-(cyclohexanecarbonyl)pyrrolidine-2-carboxylic acid] | 1000 to 10000 | 1000 to 10000 | +++ (≥350) | ++ (≥100 and <200)
9 | CCc1ccccc1[C@H]1[C@@H](OCc2cc(C3CCC3)cnc2OC)[C@H](C(C)(C)C)[C@@H](C(=O)O)N1C(=O)[C@@H]1CCCCO1 [Example 185, (2S,3R,4S,5S)-3-tert-butyl-4-[(5-cyclobutyl-2-methoxypyridin-3-yl)methoxy]-5-(2-ethylphenyl)-1-[(2S)-oxane-2-carbonyl]pyrrolidine-2-carboxylic acid] | 1000 to 10000 | < 1000 | +++ (≥350) | +++ (≥200)
10 | COc1ccc(C(C)(C)C#N)cc1CO[C@H]1[C@H](C(C)(C)C)[C@@H](C(=O)O)N(C(=O)[C@@H]2CCCCO2)[C@H]1c1ccccc1C [Example 187, (2S,3R,4S,5S)-3-tert-butyl-4-{[5-(2-cyanopropan-2-yl)-2-methoxyphenyl]methoxy}-5-(2-methylphenyl)-1-[(2S)-oxane-2-carbonyl]pyrrolidine-2-carboxylic acid] | 1000 to 10000 | < 1000 | +++ (≥350) | +++ (≥200)

Second part, the compound after the results:

Row | EC50 [1] [nM] | EC50 [2] [nM] | Maximum % activity (with co-corrector) | Maximum % activity (without co-corrector) | Structure (SMILES)
11 | 1000 to 10000 | < 1000 | +++ (≥350) | +++ (≥200) | COc1ncc(C2CCC2)cc1CO[C@H]1[C@H](C(C)(C)C)[C@@H](C(=O)O)N(C(=O)[C@@H]2CCCCO2)[C@H]1c1ccccc1C [Example 170, (2S,3R,4S,5S)-3-tert-butyl-4-[(5-cyclobutyl-2-methoxypyridin-3-yl)methoxy]-5-(2-methylphenyl)-1-[(2S)-oxane-2-carbonyl]pyrrolidine-2-carboxylic acid]
12 | 1000 to 10000 | 1000 to 10000 | +++ (≥350) | +++ (≥200) | COc1ncc(C2CCC2)cc1CO[C@H]1[C@H](C(C)(C)C)[C@@H](C(=O)O)N(C(=O)[C@@H]2CCCCO2)[C@H]1c1ccccc1C1CC1 [Example 171, (2S,3R,4S,5S)-3-tert-butyl-4-[(5-cyclobutyl-2-methoxypyridin-3-yl)methoxy]-5-(2-cyclopropylphenyl)-1-[(2S)-oxane-2-carbonyl]pyrrolidine-2-carboxylic acid]
13 | < 1000 | < 1000 | +++ (≥350) | +++ (≥200) | COc1ccc(C(F)(F)F)cc1CO[C@H]1[C@H](C(C)(C)C)[C@@H](C(=O)O)N(C(=O)[C@@H]2CCCCO2)[C@H]1c1ccccc1C [Example 174, (2S,3R,4S,5S)-3-tert-butyl-4-{[2-methoxy-5-(trifluoromethyl)phenyl]methoxy}-5-(2-methylphenyl)-1-[(2S)-oxane-2-carbonyl]pyrrolidine-2-carboxylic acid]
14 | < 1000 | < 1000 | +++ (≥350) | +++ (≥200) | CCc1ccccc1[C@H]1[C@@H](OCc2cc(C(F)(F)F)cnc2OC)[C@H](C(C)(C)C)[C@@H](C(=O)O)N1C(=O)[C@@H]1CCCCO1 [Example 179, (2S,3R,4S,5S)-3-tert-butyl-5-(2-ethylphenyl)-4-{[2-methoxy-5-(trifluoromethyl)pyridin-3-yl]methoxy}-1-[(2S)-oxane-2-carbonyl]pyrrolidine-2-carboxylic acid]
15 | < 1000 | < 1000 | +++ (≥350) | +++ (≥200) | COc1ncc(C(F)(F)F)cc1CO[C@H]1[C@H](C(C)(C)C)[C@@H](C(=O)O)N(C(=O)[C@@H]2CCCCO2)[C@H]1c1ccccc1-c1ccccc1 [Example 180, (2S,3R,4S,5S)-5-([1,1′-biphenyl]-2-yl)-3-tert-butyl-4-{[2-methoxy-5-(trifluoromethyl)pyridin-3-yl]methoxy}-1-[(2S)-oxane-2-carbonyl]pyrrolidine-2-carboxylic acid]
16 | < 1000 | < 1000 | +++ (≥350) | +++ (≥200) | CCc1ccccc1[C@H]1[C@@H](OCc2ccc(C(F)(F)F)cc2OC)[C@H](C(C)(C)C)[C@@H](C(=O)O)N1C(=O)[C@@H]1CCCCO1 [Example 184, (2S,3R,4S,5S)-3-tert-butyl-5-(2-ethylphenyl)-4-{[2-methoxy-4-(trifluoromethyl)phenyl]methoxy}-1-[(2S)-oxane-2-carbonyl]pyrrolidine-2-carboxylic acid]
17 | < 1000 | < 1000 | +++ (≥350) | +++ (≥200) | COc1ccc(C(C)(C)C)cc1CO[C@H]1[C@H](C(C)(C)C)[C@@H](C(=O)O)N(C(=O)[C@@H]2CCCCO2)[C@H]1c1ccccc1C [Example 188, (2S,3R,4S,5S)-3-tert-butyl-4-[(5-tert-butyl-2-methoxyphenyl)methoxy]-5-(2-methylphenyl)-1-[(2S)-oxane-2-carbonyl]pyrrolidine-2-carboxylic acid]
